Data taken from patent EP1000543A1, “A method for inducing resistance of plants to mycotoxin-producing fungi” (PROGUARD, INC., priority 1994, dated 1996).

Legend:
[1] = system: Fusarium subglutinans f. sp. pini; assay: bioassay based on inhibition of radial growth on potato dextrose agar (colony diameter); assay type: cell-based, Fusarium subglutinans f. sp. pini (isolate SL-1, UCB); settings: for Radical Growth of Fusarium subglutinas f.sp. pini (colony diameter): 18° C, 5 days; for radical growth of Fusarium subglutinans: cinnamic aldehyde in vehicle with or without saponin, glutaraldehyde 2%
Method: A bioassay based on inhibition of radial growth of Fusarium subglutinans f. sp. pini was used to test various aldehyde formulations. The bioassay was performed in a double blind fashion under sterile conditions. All concentrations given are those of particular solutions before dilution in the agar. Eight ml of test formulation was pipetted into 200 ml of molten 2% potato dextrose agar (DIFCO), and the mixture was dispersed into 5 plastic petri dishes (25 ml dish). Test formulations of 5 ppm benomyl were used as a positive control and sterile H2O as a negative control. Each of four plates was inoculated at the center with an agar plug transferred from a growing PDA culture of Fusarium subglutinans f. sp. pini (isolate SL-1, UCB) for each test formulation. A fifth plate was left noninoculated as a control for inhibited growth.
All inoculated and non-inoculated plates were incubated at 18° C for 5 days, after which colony diameters were measured. […] No growth of the colony (diameter=0) indicates a maximum growth inhibition.

[2] = at 25°C; cited from earlier work
[3] = vapor pressure; assay type: physicochemical; settings: at 25°C

In the case of `O=CCCCC=O` [Glutaraldehyde, reference compound], the “Radical Growth of Fusarium subglutinas f.sp. pini (colony diameter)” value (shortened to “Radical Growth … (colony diameter)”) ([1]; 2% glutaraldehyde, no Cinnamic Aldehyde) is reported as 3.663 and the “radical growth of Fusarium subglutinans” value ([1]; result in words) is reported as “inhibited”.

For `CCCCNC(=O)n1c(NC(=O)OC)nc2ccccc21` [Benomyl, reference compound], the “Radical Growth … (colony diameter)” value ([1]; positive control, 5 ppm benomyl, no Cinnamic Aldehyde) was 0.

In the case of `CCCCCCC(C=O)=Cc1ccccc1` [HCA, 2-hexyl-3-phenyl-2-propenal], the vapor pressure [2] is listed as 70 x 10^-5 mm Hg.

For `CCN(CC)c1cccc(C)c1` [N,N-diethyl-m-toluamine, reference compound], the vapor pressure [2] is given as 167 x 10^-5 mm Hg.

In the case of cinnamic aldehyde, the “Radical Growth … (colony diameter)” value ([1]; Cinnamic Aldehyde 10 ppm in 2% Tween 80, 6% NaHCO3, with Saponin) is reported as 4.088, the “Radical Growth … (colony diameter)” value ([1]; Cinnamic Aldehyde 10 ppm in 2% Tween 80, 6% NaHCO3, no additive, concentration before dilution in agar) is reported as 4.363 and the “Radical Growth … (colony diameter)” value ([1]; Cinnamic Aldehyde 100 ppm in 2% Tween 80, 6% NaHCO3, with Saponin) is reported as 4.300. For the same compound, the “Radical Growth … (colony diameter)” value ([1]; Cinnamic Aldehyde 100 ppm in 2% Tween 80, 6% NaHCO3, no additive, concentration before dilution in agar) was 4.238, the “Radical Growth … (colony diameter)” value ([1]; Cinnamic Aldehyde 2,500 ppm in 2% Tween 80, 6% NaHCO3, with Saponin) was 3.600 and the “Radical Growth … (colony diameter)” value ([1]; Cinnamic Aldehyde 2,500 ppm in 2% Tween 80, 6% NaHCO3, no additive, concentration before dilution in agar) was 3.513. The “Radical Growth … (colony diameter)” value ([1]; Cinnamic Aldehyde 5000 ppm in 2% Tween 80, 6% NaHCO3, with Saponin) was 2.913, the “Radical Growth … (colony diameter)” value ([1]; Cinnamic Aldehyde 5000 ppm in 2% Tween 80, 6% NaHCO3, no additive, concentration before dilution in agar) was 2.980 and the “Radical Growth … (colony diameter)” value ([1]; Cinnamic Aldehyde 12,500 ppm in 2% Tween 80, 6% NaHCO3, with Saponin) was 0. For the same compound, the “Radical Growth … (colony diameter)” value ([1]; Cinnamic Aldehyde 12,500 ppm in 2% Tween 80, 6% NaHCO3, no additive, concentration before dilution in agar) was 0, the “Radical Growth … (colony diameter)” value ([1]; Cinnamic Aldehyde 25,000 ppm in 2% Tween 80, 6% NaHCO3, with Saponin) was 0 and the “Radical Growth … (colony diameter)” value ([1]; Cinnamic Aldehyde 25,000 ppm in 2% Tween 80, 6% NaHCO3, no additive, concentration before dilution in agar) was 0. The Radial growth ([1]; result in words, at 12,500 ppm) was “completely inhibited”, the “radical growth of Fusarium subglutinans” value ([1]; result in words) was “inhibited” and the vapor pressure [2] was 2970 x 10^-5 mm Hg. The “vapor pressure relative to HCA” value [3] was “approximately 40 times higher”.
